Blank lines part the entries; values can stand above or below the molecule they belong to.
Target: T1, GATA4–NKX2-5 transcriptional synergy (Mus musculus, UniProt P42582+Q08369)
T1 construct: expressed in transfected cells; host or cells: COS-1
Assay: GATA4–NKX2-5 transcriptional synergy luciferase reporter assay (3xNKE reporter, COS-1 cells)
Format: cell-based
Description: To screen compounds for the GATA4–NKX2-5 interaction, we have developed a luciferase reporter assay based on their property to activate gene transcription synergistically through the NKX2-5 binding site on DNA.[28] In this assay, we transfected mammalian COS-1 cells with protein expression vectors for GATA4 and NKX2-5 proteins together with artificial luciferase reporter vector containing three high affinity binding sites for NKX2-5 (NKE). […] All 257 compounds were tested in two concentrations, 3 and 10 μM. Compounds either inhibited, enhanced, or had no effect on the GATA4–NKX2-5 transcriptional synergy. To investigate the selectivity of the active compounds, we tested their effects on NKX2-5 transcriptional activity by using the same luciferase reporter vector as in transcriptional synergy assay with three NKE sites (Figure 3B). Furthermore, we used GATA luciferase reporter assay to examine if compounds have an effect on GATA4 transcriptional activity. In this assay, we cotransfected the cells with a GATA4 protein expression vector and a reporter vector with tandem GATA4 binding sites (Figure 3C). Previously we have reported that compound 1 inhibited the GATA4–NKX2-5 transcriptional synergy at micromolar concentrations (IC50 = 3 μM).[29]
The plasmids expressing mouse GATA4 protein, pMT2-GATA4, and empty pMT2 were gifts from D. B. Wilson (Department of Pediatrics, St. Louis Children’s Hospital, St. Louis, MO).[44] The plasmids expressing mouse NKX2-5 protein, pMT2-NKX2-5, have been described earlier.[28] The luciferase reporter plasmid used in GATA4–NKX2-5 transcriptional synergy assay and NKX transcriptional assay, pGL3-3xHA, contains three high affinity binding sites for NKX2-5.[28] The luciferase reporter plasmid used in GATA transcriptional assay, NP-112, contains tandem GATA-sites and minimal promoter of rat brain natriuretic peptide (BNP) gene.[45] The pGL3-BNP luciferase reporter containing −534/+4 bp rat BNP proximal promoter described previously was used in hypertrophy assay.[46]
The primary screening assay of compounds’ effect on GATA4–NKX2-5 transcriptional synergy and COS-1 cell culturing has been described earlier.[33] […] (Kinnunen et al., unpublished observation). Briefly, COS-1 cells were seeded at 14 000 cells/well in Isoplate-96 microplates (PerkinElmer, Turku, Finland) and grown overnight. The cells were transfected with the luciferase reporter plasmid pGL3-3xHA 100 ng/well and equal amounts of expression plasmids pMT2-GATA4 and pMT2-NKX2-5 total 50 ng/well. To verify the synergistic effect, the cells were transfected with pMT2-GATA4 or pMT2-NKX2-5 25 ng/well, and the total DNA concentration was adjusted to 50 ng/well with empty pMT2 plasmid. In NKX2-5 and GATA4 luciferase reporter assays, the cells were transfected with reporter plasmid pGL3-3xHA or NP-112 (100 ng/well) and expression plasmid pMT2-NKX2-5 or pMT2-GATA4 (25 ng/well). The ratio of DNA/transfection reagent (Fugene 6, Promega) was 1:3 in all assays. The transfections were performed in serum and antibiotics free media for 6 h. The cells were treated with compounds or vehicle (0.1% DMSO) for 24 h, and the luminescence was measured using neolite Reporter Gene Assay System (PerkinElmer, Turku, Finland) and Victor2 plate reader (PerkinElmer, Turku, Finland).
Raw luciferase data were analyzed in Excel, and clear outliers were removed from triplicates by using the Grubb’s test. Data analysis was performed using R.[49] The luciferase data were first normalized on the basis of the combined mean value of controls. For data visualization and creation of figures, the following R packages were used: ggplot2, cowplot, RColorBrewer, and pheatmap. The heatmaps of the toxicity data were produced with GraphPad Prism 7.00 (GraphPad Software, La Jolla, CA). Statistical significance of luciferase reporter assay data was evaluated by randomized block analysis of variance followed by Dunnett’s post hoc test. […]

[1] = 3 µM compound, GATA4–NKX2-5 transcriptional synergy reporter, COS-1 cells
[2] = 10 µM compound, GATA4–NKX2-5 transcriptional synergy reporter, COS-1 cells
[3] = COS-1, compound 3 µM, luciferase reporter activity, spread in separate STDEV column
[4] = COS-1, compound at 3 µM, luciferase reporter activity, % of control
[5] = COS-1, compound at 10 µM, luciferase reporter activity, % of control
[6] = COS-1, 3 µM, luciferase reporter activity, % of control
[7] = COS-1, 10 µM, luciferase reporter activity, % of control
[8] = COS-1, compound 3 µM, luciferase reporter activity relative to control
[9] = COS-1, compound 10 µM, luciferase reporter activity, spread in separate STDEV column

T1 sequence (Q08369 whole entry): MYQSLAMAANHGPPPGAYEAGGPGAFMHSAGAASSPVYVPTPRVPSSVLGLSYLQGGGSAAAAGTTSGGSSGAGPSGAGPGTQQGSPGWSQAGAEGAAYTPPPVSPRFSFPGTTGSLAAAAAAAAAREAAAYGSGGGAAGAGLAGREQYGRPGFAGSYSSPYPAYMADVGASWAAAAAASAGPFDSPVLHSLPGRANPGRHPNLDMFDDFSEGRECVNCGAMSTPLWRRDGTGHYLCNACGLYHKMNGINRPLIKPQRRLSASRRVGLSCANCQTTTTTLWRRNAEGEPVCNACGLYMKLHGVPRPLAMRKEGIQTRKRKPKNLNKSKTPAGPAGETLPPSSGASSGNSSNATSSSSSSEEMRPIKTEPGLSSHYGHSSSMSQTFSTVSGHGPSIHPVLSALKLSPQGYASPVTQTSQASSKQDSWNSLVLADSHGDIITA
T1 sequence (P42582 whole entry): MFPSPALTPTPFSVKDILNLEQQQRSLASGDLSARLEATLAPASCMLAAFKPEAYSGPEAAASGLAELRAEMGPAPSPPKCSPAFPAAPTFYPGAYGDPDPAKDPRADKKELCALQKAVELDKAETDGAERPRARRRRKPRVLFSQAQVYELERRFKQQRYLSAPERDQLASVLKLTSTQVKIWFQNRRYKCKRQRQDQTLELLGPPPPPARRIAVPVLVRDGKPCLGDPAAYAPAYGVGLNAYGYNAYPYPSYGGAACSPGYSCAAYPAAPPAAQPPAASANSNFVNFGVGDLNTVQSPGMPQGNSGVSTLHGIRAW

activity at 3 µM [3]: 115%
activity at 10 µM [9]: 104%
Compound: CCSCCOC(=O)c1ccc(NC(=O)c2c(-c3ccccc3)noc2C)cc1 [SI1]

activity at 3 µM [3]: 99.4%
activity at 10 µM [9]: 82.7%
Compound: Cc1onc(-c2ccccc2)c1C(=O)Nc1ccc(C(=O)OCc2ccco2)cc1 [SI2]

activity at 3 µM [3]: 85.8%
activity at 10 µM [9]: 98.5%
Compound: CC(=O)COC(=O)c1ccc(NC(=O)c2c(-c3ccccc3)noc2C)cc1 [SI3]

activity at 3 µM [6]: 105%
activity at 10 µM [7]: 89.1%
Compound: Cc1onc(-c2ccccc2)c1C(=O)Nc1ccc(Nc2ccccc2)cc1 [SI5]

activity at 3 µM [6]: 114%
activity at 10 µM [7]: 87.2%
Compound: CCN(C(=O)c1c(-c2ccccc2)noc1C)c1ccc(Nc2ccccc2)cc1 [SI6]

activity at 3 µM [6]: 97.9%
activity at 10 µM [7]: 79%
Compound: CCCCOc1ccc(NC(=O)c2c(-c3ccccc3)noc2C)cn1 [SI7]

activity at 3 µM [4]: 83.5%
activity at 10 µM [5]: 78%
Compound: Cc1onc(-c2ccccc2)c1C(=O)Nc1nc2ccccc2n1C [SI9]

activity at 3 µM [4]: 116%
activity at 10 µM [5]: 78.3%
Compound: Cc1cc(NC(=O)c2c(-c3ccccc3)noc2C)ncc1[N+](=O)[O-] [SI10]

activity at 3 µM [4]: 80.1%
activity at 10 µM [5]: 98.5%
Compound: Cc1onc(-c2ccccc2)c1C(=O)Nc1ccc(C(=O)Nc2ccccc2)cc1 [SI11]

activity at 3 µM [4]: 108%
activity at 10 µM [5]: 99.5%
Compound: Cc1onc(-c2ccccc2)c1C(=O)Nc1cnc2ccccc2c1 [SI12]

activity at 3 µM [3]: 89.2%
activity at 10 µM [9]: 71.6%
Compound: Cc1onc(-c2ccccc2)c1C(=O)Nc1ccc(OCC(F)(F)F)c(Cl)c1 [SI13]

activity at 3 µM [3]: 107%
activity at 10 µM [9]: 98.2%
Compound: Cc1onc(-c2ccccc2)c1C(=O)Nc1ccc2c(c1)C(=O)CCC2 [SI14]

activity at 3 µM [4]: 92.6%
activity at 10 µM [5]: 96%
Compound: Cc1onc(-c2ccccc2)c1C(=O)Nc1ccc2c(c1)nc(C)n2C(C)C [SI15]

activity at 3 µM [6]: 99.5%
activity at 10 µM [7]: 91.3%
Compound: Cc1onc(-c2ccccc2)c1C(=O)N1CCc2cc([N+](=O)[O-])ccc21 [SI16]

activity at 3 µM [6]: 99.2%
activity at 10 µM [7]: 87.1%
Compound: Cc1onc(-c2ccccc2)c1NC(=O)OC(C)(C)C [SI17]

activity at 3 µM [1]: 102%
activity at 10 µM [2]: 92.8%
Compound: CCN(CC)c1ccc(NCc2c(-c3c(Cl)cccc3Cl)noc2C)cc1 [SI18]

activity at 3 µM [6]: 91.6%
activity at 10 µM [7]: 79.1%
Compound: CCN(CC)c1ccc(NS(=O)(=O)c2c(C)noc2C)cc1 [SI19]

activity at 3 µM [6]: 82.6%
activity at 10 µM [7]: 101%
Compound: CCN(CC)c1ccc(/N=N/c2c(C)noc2C)cc1 [SI20]

activity at 3 µM [6]: 113%
activity at 10 µM [7]: 97.4%
Compound: CCN(CC)c1ccc(C(=O)Nc2c(C)noc2C)cc1 [SI21]

activity at 3 µM [6]: 80.4%
activity at 10 µM [7]: 114%
Compound: CCN(CC)c1ccc(C(=O)On2nnc3ccccc32)cc1 [SI22]

activity at 3 µM [4]: 109%
activity at 10 µM [5]: 68.7%
Compound: Cc1onc(-c2ccccc2)c1NC(=O)Nc1ccc(OC(F)(F)F)cc1 [SI23]

activity at 3 µM [6]: 109%
activity at 10 µM [7]: 86.5%
Compound: Cc1onc(-c2ccccc2)c1NC(=O)Nc1cccc(C(F)(F)F)c1 [SI24]

activity at 3 µM [4]: 91.2%
activity at 10 µM [5]: 118%
Compound: Cc1onc(-c2ccccc2)c1NC(=O)NC1CCCCC1 [SI25]

activity at 3 µM [6]: 94.9%
activity at 10 µM [7]: 72.7%
Compound: Cc1onc(-c2ccccc2)c1NC(=O)Nc1ccc(C(=O)c2ccccc2)cc1 [SI26]

Continued, molecule first:

Compound: CCN(CC)c1ccc(NC(=O)c2c(-c3ccc(-c4ccc(F)cc4)cc3)noc2C)cc1 [Compound 39j]
activity at 3 µM [1]: 115%
activity at 10 µM [2]: 114%

Compound: CCN(CC)c1ccc(NC(=O)c2c(-c3cc(Br)cs3)noc2C)cc1 [Compound 39l]
activity at 3 µM [3]: 91%

Compound: Cc1onc(-c2cccc([N+](=O)[O-])c2)c1C(=O)Nc1ccc(N(C)C)cc1 [Compound 40]
activity at 3 µM [4]: 95%
activity at 10 µM [5]: 101%

Compound: CCN(CC)c1ccc(NC(=O)c2ncoc2-c2ccccc2)cc1 [Compound 47a]
activity at 3 µM [6]: 90.7%
activity at 10 µM [7]: 112%

Compound: CCN(CC)c1ccc(NC(=O)c2ccnc(C(F)(F)F)c2)cc1 [Compound 47ac]
activity at 3 µM [1]: 88.3%

Compound: CCN(CC)c1ccc(NC(=O)c2nn(-c3ccccc3)nc2C)cc1 [Compound 47b]
activity at 3 µM [6]: 97.7%
activity at 10 µM [7]: 101%

Compound: CCN(CC)c1ccc(NC(=O)c2cnn(C)c2-c2ccccc2)cc1 [Compound 47e]
activity at 3 µM [8]: 81.1%

Compound: CCN(CC)c1ccc(NC(=O)c2c[nH]nc2-n2cnnn2)cc1 [Compound 47g, N-[4-(Diethylamino)phenyl]-3-(1H-tetrazol-1-yl)-1H-pyrazole-4-carboxamide]
activity at 3 µM [1]: 102%

Compound: CCN(CC)c1ccc(NC(=O)c2ccoc2CCc2cccs2)cc1 [Compound 47i]
activity at 3 µM [1]: 89%
activity at 10 µM [2]: 103%

Compound: CCN(CC)c1ccc(NC(=O)c2c(-c3ccccc3)nnc3ccccc23)cc1 [Compound 47j]
activity at 3 µM [8]: 113%

Compound: CCN(CC)c1ccc(NC(=O)c2c(-c3ccccc3)nnn2CCOC)cc1 [Compound 47k]
activity at 3 µM [8]: 73.2%

Compound: CCN(CC)c1ccc(NC(=O)c2c(-c3ccccc3)nnn2C)cc1 [Compound 47o]
activity at 3 µM [8]: 113%

Compound: CCN(CC)c1ccc(NC(=O)c2nnn(C)c2-c2ccccc2)cc1 [Compound 47p]
activity at 3 µM [8]: 86.8%

Compound: CCN(CC)c1ccc(NC(=O)c2c(C(F)(F)F)nn(C)c2Oc2ccccc2)cc1 [Compound 47q]
activity at 3 µM [1]: 94.5%

Compound: CCN(CC)c1ccc(NC(=O)c2cnoc2C2CC2)cc1 [Compound 47r]
activity at 3 µM [6]: 114%
activity at 10 µM [7]: 145%

Compound: CCN(CC)c1ccc(NC(=O)c2csc3nnsc23)cc1 [Compound 47v]
activity at 3 µM [1]: 95.9%
activity at 10 µM [2]: 132%

Compound: CCN(CC)c1ccc(NC(=O)c2c(SC)nsc2SC)cc1 [Compound 47w]
activity at 3 µM [1]: 115%
activity at 10 µM [2]: 112%

Compound: CCN(CC)c1ccc(NC(=O)c2ncoc2-c2ccco2)cc1 [Compound 47x]
activity at 3 µM [3]: 116%
activity at 10 µM [9]: 116%

Compound: CCN(CC)c1ccc(/N=C/c2onc(-c3ccccc3)c2C(=O)Nc2ccc(N(CC)CC)cc2)cc1 [Compound 48]
activity at 3 µM [6]: 74.9%
activity at 10 µM [7]: 54.1%

Compound: CCN(CC)c1ccc(/N=C/c2onc(-c3ccccc3)c2C(=O)OC)cc1 [Compound 51]
activity at 3 µM [4]: 81.3%
activity at 10 µM [5]: 93.5%

Compound: CCN(CC)c1ccc(NC(=O)c2ccsc2)cc1 [Compound 55]
activity at 10 µM [7]: 108%

Compound: CCN(CC)c1ccc(NC(=O)C2CCCC2)cc1 [Compound 57]
activity at 3 µM [3]: 112%
activity at 10 µM [9]: 115%

Compound: CCN(CC)c1ccc(NC(=O)c2c(-c3ccccn3)noc2C)cc1 [Compound 59]
activity at 3 µM (COS-1, GATA4-NKX2-5 transcriptional synergy luciferase reporter assay, compound at 3 µM): 90.9%
activity at 10 µM (COS-1, GATA4-NKX2-5 transcriptional synergy luciferase reporter assay, compound at 10 µM): 104%

Compound: CCN(c1ccc(NC(=O)c2c(C)noc2-c2snnc2C)cc1)C(C)C [Compound 62]
activity at 3 µM [1]: 31%

Compound: Cc1onc(-c2ccccc2)c1NC(=O)c1ccc(N2CCN(C)CC2)cc1 [Compound 67]
activity at 3 µM [4]: 90.6%
activity at 10 µM [5]: 124%

Compound: Cc1onc(-c2ccccc2)c1C(=O)N(C)c1ccc(C(=O)O)cc1 [Compound 68]
activity at 3 µM [3]: 117%
activity at 10 µM [9]: 127%

Compound: CCC(C)NC(=O)c1cc(-c2ccco2)on1 (centres unmarked) [Compound 69]
activity at 3 µM [3]: 127%
activity at 10 µM [9]: 138%

Compound: CC(=O)c1ccc(NC(=O)c2cc(-c3ccco3)on2)cc1 [Compound 70]
activity at 3 µM [3]: 115%

— PMC7076710, “Synthesis, Identification, and Structure–Activity Relationship Analysis of GATA4 and NKX2-5 Protein–Protein Interaction Modulators” (Journal of Medicinal Chemistry, 2019)
